Laboratory results taken from patent publication US20130165641A1, “6,11-BRIDGED BIARYL MACROLIDES” (Enanta Pharmaceuticals, Inc., priority 2007, published 2013).
In brackets after ≈: the same amount, converted by molar mass.

System: MRSA
Assay: MIC by micro-dilution method, MRSA isolates
Type: cell-based, Staphylococcus aureus
Details: compounds of Formula XVI; for MIC MRSA 7662: MRSA isolate 7662; for MIC MRSA 33591: MRSA isolate 33591
Description: Susceptibility tests can be used to quantitatively measure the in vitro activity of an antimicrobial agent against a given bacterial isolate. Compounds are tested for in vitro antibacterial activity by a micro-dilution method. Minimal Inhibitory Concentration (MIC) is determined in 96 well microtiter plates utilizing the appropriate broth medium for the observed bacterial isolates. […] The diluted compounds (2 μl/well) are then transferred into sterile, uninoculated medium (0.2 mL) by use of a 96 fixed tip-pipetting station. The inoculum for each bacterial strain is standardized to approximately 5×10^5 CFU/mL by optical comparison to a 0.5 McFarland turbidity standard. The plates are inoculated with 10 μl/well of adjusted bacterial inoculum. The 96 well plates are covered and incubated at 35+/−2° C. for 24 hours in ambient air environment. Following incubation, plate wells are visually examined by Optical Density measurement for the presence of growth (turbidity). The lowest concentration of an antimicrobial agent at which no visible growth occurs is defined as the MIC.
All in vitro testing follows the guidelines described in the Approved Standards M7-A7 protocol, published by the Clinical Laboratory Standards Institute (CLSI).

MIC MRSA 7662 | MIC MRSA 33591 | Structure (SMILES)
8 µg/mL (≈ 9.15 µM) | 8 µg/mL (≈ 9.15 µM) | CCC1OC(=O)C(C)(F)C(=O)C(C)C(OC2OC(C)CC(N(C)C)C2O)C2(C)CC(C)C(=NC(C)=O)C(C)C(OCC(=NOCc3ccc(-n4ccc(N)n4)nc3)CO2)C1(C)O (stereo not drawn) [Example 78]
2 µg/mL (≈ 2.25 µM) | 4 µg/mL (≈ 4.5 µM) | CCC(=O)N=C1C(C)CC2(C)OCC(=NOCc3ccc(-n4ccc(N)n4)nc3)COC(C1C)C(C)(O)C(CC)OC(=O)C(C)(F)C(=O)C(C)C2OC1OC(C)CC(N(C)C)C1O (stereo not drawn) [Example 79]
4 µg/mL (≈ 4.38 µM) | 4 µg/mL (≈ 4.38 µM) | CCC1OC(=O)C(C)(F)C(=O)C(C)C(OC2OC(C)CC(N(C)C)C2O)C2(C)CC(C)C(=NC(=O)C(C)C)C(C)C(OCC(=NOCc3ccc(-c4cccc(N)n4)cn3)CO2)C1(C)O (stereo not drawn) [Example 80]
4 µg/mL (≈ 4.58 µM) | 4 µg/mL (≈ 4.58 µM) | CCC1OC(=O)C(C)(F)C(=O)C(C)C(OC2OC(C)CC(N(C)C)C2O)C2(C)CC(C)C(=NC(C)=O)C(C)C(OCC(=NOCc3ccc(-n4ccc(N)n4)cc3)CO2)C1(C)O (stereo not drawn) [Example 81]
4 µg/mL (≈ 4.58 µM) | 8 µg/mL (≈ 9.15 µM) | CCC1OC(=O)C(C)(F)C(=O)C(C)C(OC2OC(C)CC(N(C)C)C2O)C2(C)CC(C)C(=NC(C)=O)C(C)C(OCC(=NOCc3ccc(-n4ccc(N)n4)cn3)CO2)C1(C)O (stereo not drawn) [Example 82]
4 µg/mL (≈ 4.49 µM) | 8 µg/mL (≈ 8.98 µM) | CCC1OC(=O)C(C)(F)C(=O)C(C)C(OC2OC(C)CC(N(C)C)C2O)C2(C)CC(C)C(=NC(C)=O)C(C)C(OCC(=NOCc3ccc(-n4ccc(N)n4)cc3F)CO2)C1(C)O (stereo not drawn) [Example 85]
4 µg/mL (≈ 4.43 µM) | 4 µg/mL (≈ 4.43 µM) | CCC1OC(=O)C(C)(F)C(=O)C(C)C(OC2OC(C)CC(N(C)C)C2O)C2(C)CC(C)C(=NC(=O)C(C)C)C(C)C(OCC(=NOCc3ccc(-n4ccc(N)n4)nc3)CO2)C1(C)O (stereo not drawn) [Example 86]
2 µg/mL (≈ 2.22 µM) | 4 µg/mL (≈ 4.43 µM) | CCC1OC(=O)C(C)(F)C(=O)C(C)C(OC2OC(C)CC(N(C)C)C2O)C2(C)CC(C)C(=NC(=O)C(C)C)C(C)C(OCC(=NOCc3ccc(-n4ccc(N)n4)cn3)CO2)C1(C)O (stereo not drawn) [Example 87]
4 µg/mL (≈ 4.41 µM) | 4 µg/mL (≈ 4.41 µM) | CCC1OC(=O)C(C)(F)C(=O)C(C)C(OC2OC(C)CC(N(C)C)C2O)C2(C)CC(C)C(=NC(C)=O)C(C)C(OCC(=NOCc3ccc(-n4ccc(N)n4)cc3Cl)CO2)C1(C)O (stereo not drawn) [Example 89]
2 µg/mL (≈ 2.25 µM) | 4 µg/mL (≈ 4.5 µM) | CCC(=O)N=C1C(C)CC2(C)OCC(=NOCc3ccc(-n4ccc(N)n4)cn3)COC(C1C)C(C)(O)C(CC)OC(=O)C(C)(F)C(=O)C(C)C2OC1OC(C)CC(N(C)C)C1O (stereo not drawn) [Example 92]
8 µg/mL (≈ 8.9 µM) | 8 µg/mL (≈ 8.9 µM) | CCC1OC(=O)C(C)(F)C(=O)C(C)C(OC2OC(C)CC(N(C)C)C2O)C2(C)CC(C)C(=NC(=O)C3CC3)C(C)C(OCC(=NOCc3ccc(-n4ccc(N)n4)cc3)CO2)C1(C)O (stereo not drawn) [Example 93]
8 µg/mL (≈ 8.98 µM) | 8 µg/mL (≈ 8.98 µM) | CCC1OC(=O)C(C)(F)C(=O)C(C)C(OC2OC(C)CC(N(C)C)C2O)C2(C)CC(C)C(=NC(C)=O)C(C)C(OCC(=NOCc3ccc(-n4ccc(N)n4)c(F)c3)CO2)C1(C)O (stereo not drawn) [Example 95]
8 µg/mL (≈ 8.86 µM) | 8 µg/mL (≈ 8.86 µM) | CC[C@H]1OC(=O)[C@@](C)(F)C(=O)[C@H](C)[C@@H](O[C@@H]2O[C@H](C)C[C@H](N(C)C)[C@H]2O)[C@@]2(C)C[C@@H](C)C(=NC(C)=O)[C@H](C)[C@@H](OC/C(=N\OCc3ccc(-n4ccc(N)n4)cc3OC)CO2)[C@]1(C)O [Example 99]

More lines, now with the values behind:

Structure (SMILES) | MIC MRSA 7662 | MIC MRSA 33591
CCC1OC(=O)C(C)(F)C(=O)C(C)C(OC2OC(C)CC(N(C)C)C2O)C2(C)CC(C)C(=NC(C)=O)C(C)C(OCC(=NOCc3ccc(-c4cccc(N)n4)cn3)CO2)C1(C)O (stereo not drawn) [Example 74] | 8 µg/mL (≈ 9.04 µM) | 8 µg/mL (≈ 9.04 µM)
CCC(=O)N=C1C(C)CC2(C)OCC(=NOCc3ccc(-c4cccc(N)n4)cn3)COC(C1C)C(C)(O)C(CC)OC(=O)C(C)(F)C(=O)C(C)C2OC1OC(C)CC(N(C)C)C1O (stereo not drawn) [Example 75] | 4 µg/mL (≈ 4.45 µM) | 4 µg/mL (≈ 4.45 µM)
CCCC(=O)N=C1C(C)CC2(C)OCC(=NOCc3ccc(-c4cccc(N)n4)cn3)COC(C1C)C(C)(O)C(CC)OC(=O)C(C)(F)C(=O)C(C)C2OC1OC(C)CC(N(C)C)C1O (stereo not drawn) [Example 76] | 4 µg/mL (≈ 4.38 µM) | 4 µg/mL (≈ 4.38 µM)
CCC1OC(=O)C(C)(F)C(=O)C(C)C(OC2OC(C)CC(N(C)C)C2O)C2(C)CC(C)C(=NC(=O)C3CC3)C(C)C(OCC(=NOCc3ccc(-c4cccc(N)n4)cn3)CO2)C1(C)O (stereo not drawn) [Example 77] | 8 µg/mL (≈ 8.78 µM) | 8 µg/mL (≈ 8.78 µM)
CCC(=O)N=C1C(C)CC2(C)OCC(=NOCc3ccc(-n4ccc(N)n4)cc3)COC(C1C)C(C)(O)C(CC)OC(=O)C(C)C(=O)C(C)C2OC1OC(C)CC(N(C)C)C1O (stereo not drawn) [Example 83] | 2 µg/mL (≈ 2.3 µM) | 4 µg/mL (≈ 4.6 µM)
CCC1OC(=O)C(C)C(=O)C(C)C(OC2OC(C)CC(N(C)C)C2O)C2(C)CC(C)C(=NC(C)=O)C(C)C(OCC(=NOCc3ccc(-n4ccc(N)n4)cc3F)CO2)C1(C)O (stereo not drawn) [Example 84] | 8 µg/mL (≈ 9.16 µM) | 8 µg/mL (≈ 9.16 µM)
CCC1OC(=O)C(C)C(=O)C(C)C(OC2OC(C)CC(N(C)C)C2O)C2(C)CC(C)C(=NC(C)=O)C(C)C(OCC(=NOCc3ccc(-n4ccc(N)n4)cc3Cl)CO2)C1(C)O (stereo not drawn) [Example 88] | 8 µg/mL (≈ 8.99 µM) | 8 µg/mL (≈ 8.99 µM)
CCC1OC(=O)C(C)C(=O)C(C)C(OC2OC(C)CC(N(C)C)C2O)C2(C)CC(C)C(=NC(=O)C(C)C)C(C)C(OCC(=NOCc3ccc(-n4ccc(N)n4)cc3)CO2)C1(C)O (stereo not drawn) [Example 90] | 8 µg/mL (≈ 9.06 µM) | 8 µg/mL (≈ 9.06 µM)
CCC1OC(=O)C(C)(F)C(=O)C(C)C(OC2OC(C)CC(N(C)C)C2O)C2(C)CC(C)C(=NC(=O)C3CC3)C(C)C(OCC(=NOCc3ccc(-n4ccc(N)n4)cn3)CO2)C1(C)O (stereo not drawn) [Example 94] | 8 µg/mL (≈ 8.89 µM) | 8 µg/mL (≈ 8.89 µM)
C=Cc1cn(-c2ccc(CON=C3COC4C(C)C(=NC(C)=O)C(C)CC(C)(OC3)C(OC3OC(C)CC(N(C)C)C3O)C(C)C(=O)C(C)(F)C(=O)OC(CC)C4(C)O)nc2)nc1N (stereo not drawn) [Example 96] | 8 µg/mL (≈ 8.89 µM) | 8 µg/mL (≈ 8.89 µM)
CCC1OC(=O)C(C)(F)C(=O)C(C)C(OC2OC(C)CC(N(C)C)C2O)C2(C)CC(C)C(=NC(C)=O)C(C)C(OCC(=NOCc3cnc(-c4cccc(N)n4)s3)CO2)C1(C)O (stereo not drawn) [Example 97] | 8 µg/mL (≈ 8.98 µM) | 8 µg/mL (≈ 8.98 µM)
CCC1OC(=O)C(C)C(=O)C(C)C(OC2OC(C)CC(N(C)C)C2O)C2(C)CC(C)C(=NC(=O)C(C)C)C(C)C(OCC(=NOCc3ccc(-n4ccc(N)n4)cc3F)CO2)C1(C)O (stereo not drawn) [Example 98] | 8 µg/mL (≈ 8.88 µM) | 8 µg/mL (≈ 8.88 µM)
CC[C@H]1OC(=O)[C@@](C)(F)C(=O)[C@H](C)[C@@H](O[C@@H]2O[C@H](C)C[C@H](N(C)C)[C@H]2O)[C@@]2(C)C[C@@H](C)C(=NC(=O)C(C)C)[C@H](C)[C@@H](OC/C(=N\OCc3ncc(-c4cccc(N)n4)cn3)CO2)[C@]1(C)O [Example 100] | 8 µg/mL (≈ 8.75 µM) | 8 µg/mL (≈ 8.75 µM)
CC[C@H]1OC(=O)[C@@](C)(F)C(=O)[C@H](C)[C@@H](O[C@@H]2O[C@H](C)C[C@H](N(C)C)[C@H]2O)[C@@]2(C)C[C@@H](C)C(=NC(C)=O)[C@H](C)[C@@H](OC/C(=N\OCc3ccc(-c4nc(N)cs4)cn3)CO2)[C@]1(C)O [Example 101] | 2 µg/mL (≈ 2.24 µM) | 4 µg/mL (≈ 4.49 µM)
CC[C@H]1OC(=O)[C@@](C)(F)C(=O)[C@H](C)[C@@H](O[C@@H]2O[C@H](C)C[C@H](N(C)C)[C@H]2O)[C@@]2(C)C[C@@H](C)C(=NC(C)=O)[C@H](C)[C@@H](OC/C(=N\OCc3ccc(-c4nccc(N)n4)cn3)CO2)[C@]1(C)O [Example 102] | 8 µg/mL (≈ 9.03 µM) | 8 µg/mL (≈ 9.03 µM)
CC[C@H]1OC(=O)[C@@](C)(F)C(=O)[C@H](C)[C@@H](O[C@@H]2O[C@H](C)C[C@H](N(C)C)[C@H]2O)[C@@]2(C)C[C@@H](C)C(=NC(C)=O)[C@H](C)[C@@H](OC/C(=N\OCc3cnc(-c4cccc(N)n4)cn3)CO2)[C@]1(C)O [Example 103] | 8 µg/mL (≈ 9.03 µM) | 8 µg/mL (≈ 9.03 µM)
CC[C@H]1OC(=O)[C@@](C)(F)C(=O)[C@H](C)[C@@H](O[C@@H]2O[C@H](C)C[C@H](N(C)C)[C@H]2O)[C@@]2(C)C[C@@H](C)C(=NC(C)=O)[C@H](C)[C@@H](OC/C(=N\OCc3ccc(-c4csc(N)n4)cn3)CO2)[C@]1(C)O [Example 104] | 8 µg/mL (≈ 8.98 µM) | 8 µg/mL (≈ 8.98 µM)
CC[C@H]1OC(=O)[C@@](C)(F)C(=O)[C@H](C)[C@@H](O[C@@H]2O[C@H](C)C[C@H](N(C)C)[C@H]2O)[C@@]2(C)C[C@@H](C)C(=NC(C)=O)[C@H](C)[C@@H](OC/C(=N\OCc3ccc(-c4nccc(N)n4)cc3)CO2)[C@]1(C)O [Example 105] | 8 µg/mL (≈ 9.04 µM) | 8 µg/mL (≈ 9.04 µM)
CC[C@H]1OC(=O)[C@@](C)(F)C(=O)[C@H](C)[C@@H](O[C@@H]2O[C@H](C)C[C@H](N(C)C)[C@H]2O)[C@@]2(C)C[C@@H](C)C(=NC(C)=O)[C@H](C)[C@@H](OC/C(=N\OCc3ccc(-c4nsc(N)n4)cn3)CO2)[C@]1(C)O [Example 107] | 8 µg/mL (≈ 8.97 µM) | 16 µg/mL (≈ 17.9 µM)
CC[C@H]1OC(=O)[C@H](C)C(=O)[C@H](C)[C@@H](O[C@@H]2O[C@H](C)C[C@H](N(C)C)[C@H]2O)[C@@]2(C)C[C@@H](C)C(=NC(C)=O)[C@H](C)[C@@H](OC/C(=N\OCc3ccc(-c4nc(N)cs4)cn3)CO2)[C@]1(C)O [Example 108] | 8 µg/mL (≈ 9.16 µM) | 8 µg/mL (≈ 9.16 µM)
